From patent US11214803B2, “Modulators of YAP1 expression” (Ionis Pharmaceuticals, Inc., priority 2019, dated 2022)
Strand notation (5' to 3'): a small letter for the sugar, then the base; units joined by * are phosphorothioate-linked, units joined directly phosphodiester-linked; [ ] holds rarer units or linkages, { } end groups; capitals alone tell only the bases. k = constrained ethyl (cEt); [5mC] = 5-methylcytosine; d = 2'-deoxy (DNA)

These substances were tested on Yap1 mRNA (assay: Antisense inhibition of human Yap1 in A-431 cells by cEt gapmers, single dose (Example 1, RTS4814)). Settings: A-431 cells, 5,000 cells per well, free uptake, 2,000 nM modified oligonucleotide, approx. 48 hours, RTS4814, normalized to RIBOGREEN; Table 3.
Type: cell-based
Procedure: Modified oligonucleotides were designed to target a Yap1 nucleic acid and were tested for their effect on Yap1 mRNA level in vitro. The modified oligonucleotides were tested in a series of experiments that had similar culture conditions. Cultured A-431 cells at a density of 5,000 cells per well were treated using free uptake with 2,000 nM of modified oligonucleotide. After a treatment period of approximately 48 hours, RNA was isolated from the cells and Yap1 mRNA levels were measured by quantitative real-time RTPCR. Human primer probe set RTS4814 (forward sequence […], designated herein as SEQ ID NO.: 11; reverse sequence […], designated herein as SEQ ID NO.: 12; probe sequence […], designated herein as SEQ ID NO.: 13) was used to measure mRNA levels. Yap1 mRNA levels were normalized to total RNA content, as measured by RIBOGREEN®. Results are presented in the tables below as percent control of the amount of Yap1 mRNA relative to untreated control cells (% UTC). The modified oligonucleotides with percent control values marked with an asterisk (*) target the amplicon region of the primer probe set. Additional assays may be used to measure the potency and efficacy of the modified oligonucleotides targeting the amplicon region.
The newly designed modified oligonucleotides in the Tables below were designed as 3-10-3 cEt gapmers. The gapmers are 16 nucleosides in length, wherein the central gap segment comprises of ten 2′-deoxynucleosides and is flanked by wing segments on the 5′ direction and the 3′ direction comprising three nucleosides each. Each nucleoside in the 5′ wing segment and each nucleoside in the 3′ wing segment has a cEt sugar modification. The internucleoside linkages throughout each gapmer are phosphorothioate (P═S) linkages. All cytosine residues throughout each gapmer are 5-methylcytosines.
“Start site” indicates the 5′-most nucleoside to which the gapmer is targeted in the human gene sequence. “Stop site” indicates the 3′-most nucleoside to which the gapmer is targeted human gene sequence. […] Activity of the modified oligonucleotide may be defined in a different experiment.

Substance | YAP1 (% UTC)
715573 (kT*kA*kT*dA*dT*dA*dT*dG*dG*dT*dA*dG*dT*k[5mC]*kT*kA; antisense) [Compound 715573] | 76
715537 (kA*k[5mC]*kT*dT*dG*dG*d[5mC]*dA*d[5mC]*d[5mC]*dA*dA*dA*kA*kG*k[5mC]; antisense) [Compound 715537] | 122
715486 (antisense kT*kA*k[5mC]*dT*dT*d[5mC]*dA*dT*dA*dG*d[5mC]*dT*dT*kA*kT*kA) [Compound 715486] | 27
715489 (antisense kA*kA*k[5mC]*dT*dA*dT*dT*dA*d[5mC]*dT*dT*d[5mC]*dA*kT*kA*kG) [Compound 715489] | 90
715474 (antisense k[5mC]*kT*kT*dT*d[5mC]*dT*dT*dT*dA*dT*d[5mC]*dT*dA*kG*k[5mC]*kT) [Compound 715474] | 78
715549 (kG*kA*kA*dG*dT*dT*dG*dT*dT*dG*dA*d[5mC]*d[5mC]*kA*kA*k[5mC]; antisense) [Compound 715549] | 66
715408 (kG*k[5mC]*kG*dG*d[5mC]*dT*dT*dG*dA*dA*dG*dA*dA*kG*kG*kA; antisense) [Compound 715408] | 60
715543 (kA*k[5mC]*kT*dA*d[5mC]*dT*dT*dG*dA*dA*dG*dA*dA*k[5mC]*kT*kA; antisense) [Compound 715543] | 72
715522 (kA*k[5mC]*kT*d[5mC]*dT*dT*d[5mC]*dT*dT*dT*d[5mC]*d[5mC]*dA*k[5mC]*kT*k[5mC]; antisense) [Compound 715522] | 87
715414 (kA*kA*k[5mC]*dA*dT*dG*d[5mC]*dT*dG*dT*dG*dG*dA*kG*kT*k[5mC]; antisense) [Compound 715414] | 31
715498 (antisense kT*kG*kA*dA*d[5mC]*d[5mC]*d[5mC]*dT*dT*dG*dA*dA*dA*kA*kT*kA) [Compound 715498] | 91
715570 (kG*k[5mC]*k[5mC]*dA*dA*dA*dG*dG*dT*dA*dG*dG*dA*kT*kA*kA; antisense) [Compound 715570] | 79
715615 (antisense k[5mC]*kG*kG*dA*dT*dA*dA*dA*dA*dA*dT*dT*dA*k[5mC]*kT*kT) [Compound 715615] | 94

Same assay, conditions: Table 1; A-431 cells, free uptake, 2,000 nM, approximately 48 hours, RTS4814; Yap1 mRNA relative to untreated control cells

Substance | YAP1 (% UTC)
715538 (k[5mC]*kT*kT*dT*dG*dT*dA*dA*d[5mC]*dT*dT*dA*dA*kA*kA*kG; antisense) [Compound 715538] | 110
715457 (antisense kA*kG*kA*dG*dT*dG*dA*dT*dA*dG*dG*dT*dG*k[5mC]*k[5mC]*kA) [Compound 715457] | 47
715484 (antisense kT*kA*k[5mC]*dT*d[5mC]*dT*dT*dT*dG*dG*dA*dA*dA*k[5mC]*k[5mC]*kA) [Compound 715484] | 123
715553 (kA*kG*kA*dA*dA*dT*dA*dG*dG*dA*dA*dG*dT*kT*kG*kT; antisense) [Compound 715553] | 90
715535 (k[5mC]*kT*kA*dT*dT*dA*dA*dG*d[5mC]*dT*dG*dT*dT*kT*kA*kA; antisense) [Compound 715535] | 91
715502 (antisense k[5mC]*k[5mC]*kA*dG*dA*d[5mC]*dT*dT*dA*dA*dT*dT*d[5mC]*kA*kA*kG) [Compound 715502] | 91
715562 (k[5mC]*kA*k[5mC]*dA*d[5mC]*dA*dA*d[5mC]*dT*d[5mC]*dA*dG*dA*k[5mC]*kA*kG; antisense) [Compound 715562] | 77
715616 (antisense kG*kA*k[5mC]*dG*dG*dA*dT*dA*dA*dA*dA*dA*dT*kT*kA*k[5mC]) [Compound 715616] | 95
715514 (kG*kA*kG*d[5mC]*dG*dA*dA*dG*dG*dT*dG*d[5mC]*dG*kG*kA*kG; antisense) [Compound 715514] | 121
715469 (antisense kT*kA*kG*d[5mC]*dT*dT*dG*dG*dT*dG*dG*d[5mC]*dA*kG*k[5mC]*k[5mC]) [Compound 715469] | 94
715547 (kG*kT*kT*dG*dA*d[5mC]*d[5mC]*dA*dA*d[5mC]*dT*dA*d[5mC]*kT*kT*kG; antisense) [Compound 715547] | 98
715559 (k[5mC]*kT*kG*d[5mC]*d[5mC]*dA*dT*dT*dT*dA*dA*dG*dA*kA*kA*kT; antisense) [Compound 715559] | 114
715400 (k[5mC]*kT*k[5mC]*d[5mC]*dG*dA*dG*dT*d[5mC]*d[5mC]*d[5mC]*d[5mC]*dG*k[5mC]*kG*kG; antisense) [Compound 715400] | 107
715532 (kT*kA*kA*d[5mC]*dA*dA*d[5mC]*d[5mC]*dT*dG*dG*dT*dT*kT*kG*kT; antisense) [Compound 715532] | 91
715565 (kG*kG*kA*dT*dA*dA*dA*dT*dG*dA*dA*dT*dT*kA*kT*kA; antisense) [Compound 715565] | 115
715580 (kG*k[5mC]*k[5mC]*dT*dG*dT*d[5mC]*dT*dG*dG*dA*dA*dT*kA*k[5mC]*kA; antisense) [Compound 715580] | 101
715595 (antisense kT*k[5mC]*kA*dT*dG*dG*d[5mC]*dT*dG*dA*dA*dA*dT*kG*kA*kA) [Compound 715595] | 104
715496 (antisense k[5mC]*k[5mC]*k[5mC]*dT*dT*dG*dA*dA*dA*dA*dT*dA*dA*kG*kG*kG) [Compound 715496] | 124

Same assay, conditions: Table 2; A-431 cells, free uptake, 2,000 nM, approximately 48 hours, RTS4814; Yap1 mRNA relative to untreated control cells

Substance | YAP1 (% UTC)
715494 (antisense kG*kA*kG*dG*dT*dG*d[5mC]*dT*dA*dG*d[5mC]*dT*dG*kG*kT*kG) [Compound 715494] | 46
715434 (antisense kT*k[5mC]*kT*dT*dG*dT*dT*d[5mC]*dT*dT*dA*dT*dG*kG*kT*kT) [Compound 715434] | 31
715428 (kT*k[5mC]*k[5mC]*d[5mC]*dA*dT*d[5mC]*d[5mC]*dA*dT*d[5mC]*dA*dG*kG*kA*kA; antisense) [Compound 715428] | 106
715623 (antisense k[5mC]*k[5mC]*kT*dA*dA*dG*dA*dG*dT*dA*dA*dA*dA*kA*kA*kT) [Compound 715623] | 113
715413 (k[5mC]*kA*kT*dG*d[5mC]*dT*dG*dT*dG*dG*dA*dG*dT*k[5mC]*kA*kG; antisense) [Compound 715413] | 96
715416 (k[5mC]*kT*k[5mC]*dG*dA*dA*d[5mC]*dA*dT*dG*d[5mC]*dT*dG*kT*kG*kG; antisense) [Compound 715416] | 53
715599 (antisense kT*kT*k[5mC]*d[5mC]*d[5mC]*dA*dA*dG*d[5mC]*dT*dA*d[5mC]*d[5mC]*k[5mC]*kA*kA) [Compound 715599] | 82
715572 (kT*k[5mC]*kA*dG*dA*dG*dA*dA*dG*dA*dA*dA*dG*kG*kT*kA; antisense) [Compound 715572] | 97
715470 (antisense kT*k[5mC]*kT*dA*dG*d[5mC]*dT*dT*dG*dG*dT*dG*dG*k[5mC]*kA*kG) [Compound 715470] | 83
715596 (antisense kG*kT*kT*d[5mC]*dA*dT*dG*dG*d[5mC]*dT*dG*dA*dA*kA*kT*kG) [Compound 715596] | 104
715557 (kG*kG*kA*dA*dG*dT*dT*dA*dT*dT*d[5mC]*dA*dG*k[5mC]*kA*kG; antisense) [Compound 715557] | 46
715419 (kG*kA*k[5mC]*d[5mC]*dA*dG*dA*dA*dG*dA*dT*dG*dT*k[5mC]*kT*kT; antisense) [Compound 715419] | 107
715608 (antisense kA*kA*kT*dT*dG*dT*dA*dT*d[5mC]*d[5mC]*dA*dG*dA*k[5mC]*kA*kT) [Compound 715608] | 100
715500 (antisense kA*kA*kG*d[5mC]*d[5mC]*dT*dT*dA*dG*dA*dG*dT*d[5mC]*kA*kA*kT) [Compound 715500] | 30
715515 (kT*kA*kT*dG*dA*dG*dT*d[5mC]*dA*dA*d[5mC]*d[5mC]*dT*kG*k[5mC]*kA; antisense) [Compound 715515] | 94
715629 (antisense kG*kA*kG*d[5mC]*d[5mC]*dT*dA*d[5mC]*d[5mC]*dT*dG*dA*d[5mC]*kA*kT*kT) [Compound 715629] | 112
715536 (kG*kG*k[5mC]*dT*dA*dT*dT*dA*dA*dG*d[5mC]*dT*dG*kT*kT*kT; antisense) [Compound 715536] | 137
